Data: patent US20250122190A1, “HALOGEN-SUBSTITUTED PYRIDAZINONE COMPOUND AND APPLICATION THEREOF” (MEDSHINE DISCOVERY INC., priority 2021, published 2025)

Target: T1, hTRPC5-T478C (Homo sapiens, UniProt Q9UL62)
T1 sequence (Q9UL62 1-973): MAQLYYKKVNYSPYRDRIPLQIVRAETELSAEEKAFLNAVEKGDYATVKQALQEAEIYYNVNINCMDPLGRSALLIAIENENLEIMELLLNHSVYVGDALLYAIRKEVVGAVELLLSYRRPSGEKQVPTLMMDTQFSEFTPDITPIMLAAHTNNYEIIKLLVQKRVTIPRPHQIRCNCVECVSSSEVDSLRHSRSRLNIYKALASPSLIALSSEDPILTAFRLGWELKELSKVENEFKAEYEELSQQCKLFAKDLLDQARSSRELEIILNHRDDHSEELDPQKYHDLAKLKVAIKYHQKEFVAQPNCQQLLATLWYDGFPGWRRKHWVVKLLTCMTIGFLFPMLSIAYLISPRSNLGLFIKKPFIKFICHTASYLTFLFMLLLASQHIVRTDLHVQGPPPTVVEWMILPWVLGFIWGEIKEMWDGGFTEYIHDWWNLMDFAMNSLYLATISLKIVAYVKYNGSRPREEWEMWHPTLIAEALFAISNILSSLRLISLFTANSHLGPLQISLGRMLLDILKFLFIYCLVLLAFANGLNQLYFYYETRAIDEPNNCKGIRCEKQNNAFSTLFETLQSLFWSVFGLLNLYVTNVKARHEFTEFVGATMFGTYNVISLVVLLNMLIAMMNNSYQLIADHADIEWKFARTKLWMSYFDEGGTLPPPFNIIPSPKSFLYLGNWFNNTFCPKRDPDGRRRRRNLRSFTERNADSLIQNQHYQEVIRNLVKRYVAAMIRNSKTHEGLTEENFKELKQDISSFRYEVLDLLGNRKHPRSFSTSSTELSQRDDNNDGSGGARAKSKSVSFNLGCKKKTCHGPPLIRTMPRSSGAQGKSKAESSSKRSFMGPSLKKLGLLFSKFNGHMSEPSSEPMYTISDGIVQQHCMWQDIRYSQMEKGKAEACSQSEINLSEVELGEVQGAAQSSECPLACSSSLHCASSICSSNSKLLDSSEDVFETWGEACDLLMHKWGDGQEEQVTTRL
Experiment: hTRPC5-T478C FLIPR calcium flux IC50 assay
Type: cell-based
Conditions: hTRPC5-T478C-HEK cells, Englerin A as channel agonist
Description: Cell culture: hTRPC5-T478C-HEK cells were cultured in a humid environment in 5% CO2 at 37° C.
Cell culture medium ingredients: • DMEM, Supplier: Gibco, Catalog No. 11965-092; • FBS, Supplier: Gibco, Catalog No. 10099-141C, Concentration: 10%; • Pen/Strep, Supplier: Invitrogen, Catalog No. 15140-122, Concentration: 1%; • Zeocin, Supplier: Invitrogen, Catalog No. R25005, Concentration: 200 μg/mL; • Blasticidin S, Supplier: Invitrogen, Catalog No. R21001, Concentration: 5 μg/mL.
In general, the TRPC5-T478C cell line was passaged three times weekly. The dilution factor for each passage was 1:3. Once the cells reached about 80% confluence in the T-75 flask, the cell line was digested with trypsin for about 1 minute and the cell suspension was removed from the flask with a pipette. Depending on the dilution ratio, the removed cell suspension would be transferred to another T-75 flask containing cell culture medium. Note that in order to maintain the logarithmic growth of the cells, the confluence of the cells should be maintained at the subconfluent stage and the cells should be passaged once every 2 to 3 days depending on the proliferation rate of the cell line.
(1) Preparation of cell plate: the cells were separated according to the above-mentioned passaging and the cell density and viability were determined using a cell counter. The volume of the cell suspension was adjusted with a cell culture medium. After the density reached to the plating density, 1 μg/mL tetracycline was added to induce hTRPC5-T478C channel expression. The induced hTRPC5-T478C cells were then seeded onto poly-D-lysine (PDL)-coated 384-well plates at a density of 20000 cells/well (30 μL/well). Then the cells were cultured overnight in a cell culture incubator.
(2) Preparation of compound plate: the compounds were generally diluted with DMSO, prepared into a mother liquor and stored in a −20° C. refrigerator. A compound plating program was set on the ECHO processor, and the compounds were plated with ECHO according to the concentration gradient that was already set. In general, 9 concentrations were included with the highest concentration at 10 μM, 3-fold dilution, and 2 replicate wells. Englerin A was used as the channel agonist.
(3) On-machine testing: the cell plates and compound plates were prepared according to the above-mentioned methods. After the cell confluence of the cell plate reached 80%-90%, the cells were removed from the incubator and the testing started. Ca5 dye (Molecular Devices #R8185) was formulated with test buffer. After the cell plate culture medium was removed with Bravo, 25 μL of Ca5 dye was added to each well, and the plate was incubated for 1 hour. After 1 hour, the cell plate and compound plate were placed in FLIPR^TETRA (Molecular Devices, USA) for FLIPR detection.
Data analysis was performed using Excel 2013 (Microsoft, USA) software and GraphPad Prism 6.01 software. The maximum signal was generated by FLIPR software. Data analysis was performed using Excel (2013) and Prism 6.01. Data quality and data stability were controlled using S/B>2.50 and Z factor>0.50. The calculation formula was as follows: S/B=Avg100%/Avg0%; Z factor=1−(3*SD100%+3*SDO %)/|Avg100%-Avg0%.

## O=c1[nH]ncc(N2CCc3c(ncnc3Sc3ccc(F)cc3C(F)(F)F)C2)c1Cl [Compound WX002]
  IC50: 27 nM

## O=c1[nH]ncc(N2CCc3c(ncnc3Oc3ccc(F)cc3Br)C2)c1Cl [Compound WX004]
  IC50: 40 nM

## O=c1[nH]ncc(N2CCc3c(ncnc3Oc3ccc(F)cc3C(F)(F)F)C2)c1Br [Compound WX009]
  IC50: 37 nM

## CC(F)(F)c1cc(F)ccc1Oc1ncnc2c1CCN(c1cn[nH]c(=O)c1Cl)C2 [Compound WX010]
  IC50: 71 nM

## COCc1nc2c(c(Oc3ccc(F)cc3C(F)(F)F)n1)CCN(c1cn[nH]c(=O)c1Cl)C2 [Compound WX011]
  IC50: 80 nM

## O=c1[nH]ncc(N2CCc3c(nc(CO)nc3Sc3ccc(F)cc3C(F)(F)F)C2)c1Cl [Compound WX012]
  IC50: 24 nM

## Nc1nc2c(c(Sc3ccc(F)cc3C(F)(F)F)n1)CCN(c1cn[nH]c(=O)c1Cl)C2 [Compound WX013]
  IC50: 55.7 nM
